Literature values, collected in patent publication US8088918B2, “Noncardiotoxic pharmaceutical compounds” (Williamsburg Holdings LLC, priority 2004, dated 2012).

Legend:
[1] = preclinical and clinical studies; cited from earlier work
[2] = oral administration; cited from earlier work
CYP2D6 = CYP2D6 (Homo sapiens, UniProt P10635); details: cited from earlier work
[3] = healthy volunteers, therapeutic plasma concentrations; cited from earlier work

Sequence of CYP2D6 (P10635 whole entry): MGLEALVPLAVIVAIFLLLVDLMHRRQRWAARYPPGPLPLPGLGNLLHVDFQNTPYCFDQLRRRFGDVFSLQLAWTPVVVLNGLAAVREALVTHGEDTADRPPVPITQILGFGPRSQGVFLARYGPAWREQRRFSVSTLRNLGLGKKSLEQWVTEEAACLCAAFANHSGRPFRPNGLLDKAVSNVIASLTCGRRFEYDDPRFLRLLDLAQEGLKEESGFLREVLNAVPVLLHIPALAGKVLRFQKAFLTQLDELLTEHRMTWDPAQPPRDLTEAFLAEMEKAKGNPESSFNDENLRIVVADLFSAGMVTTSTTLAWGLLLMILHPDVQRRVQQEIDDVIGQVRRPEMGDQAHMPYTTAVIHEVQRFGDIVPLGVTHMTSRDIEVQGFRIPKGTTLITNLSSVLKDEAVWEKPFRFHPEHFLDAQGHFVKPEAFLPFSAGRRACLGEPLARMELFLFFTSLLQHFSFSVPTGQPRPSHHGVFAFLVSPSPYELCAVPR

## C[N+](C)([O-])CCCN1c2ccccc2CCc2ccccc21 [imipramine-N-oxide, Imipramine-N-oxide]
[1]
  cardiotoxicity compared with imipramine: significantly reduced
[2]
  systemic availability: about 100%
CYP2D6
  metabolism by CYP2D6 to the hydroxymetabolite: abolished the metabolism of imipramine by CYP2D6 to the hydroxymetabolite

## CC(CC(c1ccccc1)c1ccccc1)NC(C)(C)C (stereo not shown) [terodiline]
[3]
  increase in mean QTc: 23 ms
